The structures appear in SMILES notation. Where “and” joins values, the source holds several entries; their conditions need not be identical. Equal values may be shown once. Read-outs that look alike come from different tables or passages of the source.

The target of experiment [1] is T1, recombinant active full-length human MEK4 (Homo sapiens, UniProt P45985).
T1 construct: recombinant active full-length human MEK4 (Carna Biosciences); purchased Carna Biosciences
T1 sequence (P45985 1-399): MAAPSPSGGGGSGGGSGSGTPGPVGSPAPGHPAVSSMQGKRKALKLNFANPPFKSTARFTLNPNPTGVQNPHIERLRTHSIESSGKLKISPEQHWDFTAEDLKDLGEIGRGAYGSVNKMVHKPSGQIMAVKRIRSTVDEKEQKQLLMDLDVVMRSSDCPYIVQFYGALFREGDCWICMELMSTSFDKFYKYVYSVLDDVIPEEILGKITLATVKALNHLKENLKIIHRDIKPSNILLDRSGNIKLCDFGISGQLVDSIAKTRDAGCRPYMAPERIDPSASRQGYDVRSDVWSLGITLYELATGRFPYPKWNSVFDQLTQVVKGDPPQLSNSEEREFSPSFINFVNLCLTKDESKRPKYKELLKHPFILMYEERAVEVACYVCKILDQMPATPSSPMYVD
Kind of experiment: ADP-Glo kinase activity assay, MEK4. It counts as biochemical. On the procedure: (§1) Procedure for a 5 μL Kinase reaction using the ADP-Glo Kinase Assay Kit from Promega. Staurosporine was used as the positive control, and DMSO as the negative control. Activity of recombinant active full-length human MEK4 (Carna Biosciences) was measured using the ADP-Glo assay with recombinant full-length human p38α (MAPK14). Kinase reactions with MEK7 (Carna Biosciences) were done at the same concentration and amounts with recombinant full-length human p38α (MAPK14).
(§2) For each well, 4 ng of MEK4 and 600 ng of p38α in Kinase buffer (CST) were used, and 1 μL of this mixture was dispensed per well.
(§3) Inhibitor was prepared in a DMSO solution. A dose response dilution was done in a 384-well Echo transfer plate. […] This mixture was allowed to incubate for 30 minutes at room temperature.
(§4) Using a Mantis, 1 μL, of an 8 μM ATP solution was added to each well, and the plate was allowed to incubate for another 1 hour at room temperature. […] All experiments were done in triplicate on the plate, and at least in one separate technical duplicate.

The next experiment concerns the target T2, MEK7 (Homo sapiens, UniProt O14733).
T2 construct: purchased Carna Biosciences
T2 sequence (O14733 1-419): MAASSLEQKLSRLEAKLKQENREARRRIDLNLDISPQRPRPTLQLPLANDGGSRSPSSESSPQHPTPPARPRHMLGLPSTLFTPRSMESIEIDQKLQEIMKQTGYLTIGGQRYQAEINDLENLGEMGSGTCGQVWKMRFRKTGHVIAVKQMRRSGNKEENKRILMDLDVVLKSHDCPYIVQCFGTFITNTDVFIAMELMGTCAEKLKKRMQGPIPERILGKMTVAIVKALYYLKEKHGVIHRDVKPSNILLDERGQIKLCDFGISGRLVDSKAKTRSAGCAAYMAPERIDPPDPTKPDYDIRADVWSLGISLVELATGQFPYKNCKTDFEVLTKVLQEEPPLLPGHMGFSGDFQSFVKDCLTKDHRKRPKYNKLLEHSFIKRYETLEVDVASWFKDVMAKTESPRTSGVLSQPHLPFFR
Nature of the experiment: ADP-Glo kinase activity assay, MEK7. The class given is biochemical. The protocol:
The compounds were then evaluated both in vitro and in a cellular system. When studying kinase inhibitors, there are a multitude of ways to evaluate selectivity across kinases.
as §1, §2, §3, §4

For experiment [2], the system named is phospho-p42/44 MAPK in CD18 cells. Kind of experiment: p42/44 MAPK phosphorylation, western blotting, CD18. It counts as cell-based, human. To be noted: CD18, U0126 1 μM or 5 μM, 1 hour pretreatment. The protocol: (§5) The effects of different treatments on phospho-p42/44 MAPK and total p42/44 MAPK expression levels were determined by western blotting. HSP90 was used as loading control. The blots are representative of at least three biological replicates.
(§6) Whole cell extracts of cultured cells were prepared in radioimmunoprecipitation (RIPA) lysis buffer supplemented with phosphatase and protease inhibitors (Calbiochem). Protein concentration was determined by the bicinchoninic acid assay (BCA) (ThermoFisher) and separated by the SDS-PAGE technique. […] Secondary anti-mouse IgG (A4416) and anti-rabbit IgG (A6667) antibodies were purchased from Sigma-Aldrich and used a 1:4000 dilution. Images of blots were acquired on HyBlot ES Autoradiography Film (Thomas Scientific, Swedesboro, NJ, USA) following incubation with SuperSignal West Pico PLUS (ThermoFisher).

Experiment [3] relates to phospho-p42/44 MAPK in MiaPaCa2 cells. Kind of experiment: p42/44 MAPK phosphorylation, western blotting, MiaPaCa2. To be noted: MiaPaCa2, U0126 1 μM or 5 μM. It counts as cell-based, human. On the procedure:
as §5, §6

The subject of experiment [4] is phospho-p38 MAPK in HEK293T cells. Kind of experiment: p38 MAPK phosphorylation, western blotting, HEK293T. The class given is cell-based, human. To be noted: anisomycin alone. The protocol:
(§7) HSP90 was used as loading control. The blots are representative of at least three biological replicates.
(§8) We next evaluated the effects of our inhibitors on the phosphorylation activity and expression of MEK1/2, MEK3/6, and MEK7. […] We also evaluated the effects on p42/44 MAPK (ERK1/2), which functions downstream of MEK1/2.
as §6

Experiment [5] relates to phospho-p42/44 MAPK in HEK293T cells. Nature of the experiment: p42/44 MAPK (ERK1/2) phosphorylation, western blotting, HEK293T. The class given is cell-based, human. To be noted: anisomycin alone. The protocol:
as §7, §8, §6

Where [6] appears, read: headline value per compound, read-out: IC50 (MEK4, ADP-Glo).
The mark [7] stands for this setting: headline value per compound, read-out: MEK7 IC50.
Setting [8] is: individual experiment, values in brackets, n=3, read-out: MEK7 IC50 of each experiment (IC50±SEM).
[9] abbreviates: individual experiment, values in brackets, n=3, read-out: IC50 of each experiment (IC50±SEM), MEK4.

With `Nc1ccccc1-c1n[nH]c2cc(F)ccc12` [Compound 8b, 2-(6-fluoro-1H-indazol-3-yl)aniline], the IC50 in experiment [1] (setting [6]) is over 80 µM. As to `CCC(=O)Nc1ccccc1-c1n[nH]c2cc(F)ccc12` [Compound 8c, N-(2-(6-fluoro-1H-indazol-3-yl)phenyl)propionamide], in experiment [1] (setting [6]), the IC50 is over 80 µM. The same measure, in the same setting: then `C=CC(=O)Nc1ccccc1-c1n[nH]c2cc(F)ccc12` [Compound 8d, N-(2-(6-fluoro-1H-indazol-3-yl)phenyl)acrylamide], with over 80 µM. For the compound `O=S(=O)(Nc1ccc(-c2n[nH]c3cc(F)ccc23)cc1)c1cccnc1` [Compound 11a, N-(4-(6-fluoro-1H-indazol-3-yl)phenyl)pyridine-3-sulfonamide], the IC50 on MEK7 (setting [7]) was 2700 nM; at MEK7 (setting [8]) it was 1900 nM and 3500 nM. With `O=S(=O)(Nc1cccc(-c2n[nH]c3cc(F)ccc23)c1)c1cccnc1` [Compound 12a, N-(3-(6-fluoro-1H-indazol-3-yl)phenyl)pyridine-3-sulfonamide], the IC50 at MEK7 (setting [7]) is 1300 nM; on MEK7 (setting [8]), 940 nM and 1600 nM.

In the case of `O=S(=O)(Nc1cccc(-c2n[nH]c3cc(F)ccc23)c1)C1CC1` [Compound 12c, N-(3-(6-fluoro-1H-indazol-3-yl)phenyl)cyclopropanesulfonamide], the IC50 is 6400 nM on MEK7 (setting [7]); 5600 nM and 7100 nM on MEK7 (setting [8]). `O=S(=O)(NC1CC1)c1ccc(-c2n[nH]c3cc(F)ccc23)cc1` [Compound 13c, N-cyclopropyl-4-(6-fluoro-1H-indazol-3-yl)benzenesulfonamide]: the IC50 is 8700 nM at MEK7 (setting [7]); 8100 nM and 9300 nM at MEK7 (setting [8]).

Consider `O=S(=O)(Nc1ccccc1)c1cccc(-c2n[nH]c3cc(F)ccc23)c1` [Compound 14a, 3-(6-fluoro-1H-indazol-3-yl)-N-phenylbenzenesulfonamide], for which the IC50 was 840 nM on MEK7 (setting [7]); 400 nM and 610 nM and 1500 nM on MEK7 (setting [8]). On to `CC(C)Oc1ccc(NS(=O)(=O)c2cccc(-c3n[nH]c4cc(F)ccc34)c2)cc1` [Compound 15i, 3-(6-fluoro-1H-indazol-3-yl)-N-(4-isopropoxyphenyl)benzenesulfonamide], for which the IC50 on MEK7 (setting [7]) was 2900 nM; on MEK7 (setting [8]), 1800 nM and 2200 nM and 4800 nM. As for `CS(=O)(=O)c1ccc(NS(=O)(=O)c2cccc(-c3n[nH]c4cc(F)ccc34)c2)cc1` [Compound 15l], the IC50 was 920 nM at MEK7 (setting [7]); 590 nM and 780 nM and 1400 nM on MEK7 (setting [8]). Take `CC(=O)c1ccc(NS(=O)(=O)c2cccc(-c3n[nH]c4cc(F)ccc34)c2)cc1` [Compound 15n, N-(4-acetylphenyl)-3-(6-fluoro-1H-indazol-3-yl)benzenesulfonamide]: the IC50 at MEK7 (setting [8]) was 740 nM and 1300 nM and 1800 nM. For the compound `Cn1nc(-c2ccc3c(c2)OCO3)c2ccc(F)cc21` [Compound S2, 3-(benzo[d][1,3]dioxol-5-yl)-6-fluoro-1-methyl-1H-indazole], the half-maximal inhibitory concentration (IC50) in experiment [1] (setting [6]) is over 80 µM. The same measure, in the same setting: in the case of `Fc1ccc2c(-c3ccc4c(c3)OCO4)nn(Cc3ccccc3)c2c1` [Compound S3, 3-(benzo[d][1,3]dioxol-5-yl)-1-benzyl-6-fluoro-1H-indazole] it was over 80 µM. As for `Cc1ccc2c(-c3ccc(S(N)(=O)=O)cc3)n[nH]c2c1` [Compound S4, 4-(6-methyl-1H-indazol-3-yl)benzenesulfonamide], the IC50 was 2.7 µM in experiment [1] (setting [6]); 1.6 µM and 3.7 µM in experiment [1] (setting [9]).

As for `NS(=O)(=O)c1ccc(-c2n[nH]c3cc(C(F)(F)F)ccc23)cc1` [Compound S5, 4-(6-(trifluoromethyl)-1H-indazol-3-yl)benzenesulfonanamide], the IC50 was 3.7 µM in experiment [1] (setting [6]); 2.2 µM and 5.2 µM in experiment [1] (setting [9]). For `N#CC(=C(/N)Sc1ccccc1N)/C(C#N)=C(\N)Sc1ccccc1N` [Compound U0126, reference compound], the “effect of U0126 co-treatment on p42/44 MAPK phosphorylation increased by 15o and 10e” value in experiment [2] is listed as “suppressed”. For the same compound, the “effect of U0126 on p42/44 MAPK phosphorylation” value in experiment [3] was “decreased p42/44 MAPK phosphorylation”. For the compound `COc1ccc(C[C@H]2NC[C@H](O)[C@H]2OC(C)=O)cc1` [anisomycin, reference compound], in experiment [4], the “effect of anisomycin on p38 MAPK phosphorylation” value is on record as “did induce phosphorylation”. In experiment [5], the “effect of anisomycin on p42/44 MAPK phosphorylation” value was “decreases p42/44 MAPK phosphorylation”.

The values above are taken from patent publication US20240116875A1, “RATIONAL DESIGN, OPTIMIZATION, AND BIOLOGICAL EVALUATION OF NOVEL MEK4 INHIBITORS AGAINST PANCREATIC ADENOCARCINOMA” (NORTHWESTERN UNIVERSITY, priority 2022, published 2024).
